# Source: patent US6673812B1, “Preventives/remedies for glaucoma” (Senju Pharmaceutical Co., Ltd., priority 1998, dated 2004)
# Test system: Japanese white rabbits
# Experiment: Ophthalmic disorder caused by 8-time-a-day instillation to white rabbits: macroscopic observation of anterior segment of the eye
# Format: in vivo, rabbit
# Set-up: scale not given here
# Settings: mean of three eyes
# Procedure: The test drugs, Compound A and Compound C, were each dissolved in the following base at a concentration of 0.125, 0.25, 0.5 and 1.0% and adjusted to pH 7 for use in this experiment. [table] Japanese white rabbits (body weight about 2 kg) purchased from Japan Laboratory Animals, INC. were used. These animals were bred in a breeding chamber set to temperature 23±3° C., humidity 55±10% and fed on limited amount of 100 g a day of a solid feed (Labo R Stock, Nihon-Nosan Kogyo K.K.). They were allowed free access to tap water. Instillation: Using a micropipet, each test drug (100 μl) was instilled into the right eye of each animal 8 times at one hour intervals. Into the left eye was instilled a base in the same manner. Observation: anterior segment of the eye was macroscopically observed before instillation and 30 min after 2nd, 4th, 6th and 8th administrations, according to the macroscopic criteria for ocular lesions as shown in Table 1 (Naruyuki Fukui, […] no Rinshou 4, 277-289, 1970). In addition, corneal staining spot was observed before instillation and after 8th administration. [table]
# [1] = 0.125%, 30 min after 2nd instillation
# [2] = 0.125%, 30 min after 4th instillation
# [3] = 0.125%, 30 min after 6th instillation
# [4] = 0.125%, 30 min after 8th instillation
# [5] = 0.25%, 30 min after 2nd instillation
# [6] = 0.25%, 30 min after 4th instillation
# [7] = 0.25%, 30 min after 6th instillation
# [8] = 0.25%, 30 min after 8th instillation
# [9] = 0.5%, 30 min after 2nd instillation
# [10] = 0.5%, 30 min after 4th instillation
# [11] = 0.5%, 30 min after 6th instillation
# [12] = 0.5%, 30 min after 8th instillation
# [13] = 1.0%, 30 min after 2nd instillation
# [14] = 1.0%, 30 min after 4th instillation
# [15] = 1.0%, 30 min after 6th instillation
# [16] = 1.0%, 30 min after 8th instillation
smiles,measurement,setting,value
"C[C@@H](N)c1ccc(C(=O)Nc2ccncc2)cc1.Cl.Cl [Compound C, (R)-(+)-N-(4-pyridyl)-4-(1-aminoethyl)benzamide 2HCl]",Score of ocular lesions: Conjunctiva Bulbar redness,[1],0
same,Score of ocular lesions: Conjunctiva Discharge,[1],0
same,Score of ocular lesions: Conjunctiva Nictitating membrane,[1],0
same,Score of ocular lesions: Conjunctiva Palpebral edema,[1],0
same,Score of ocular lesions: Conjunctiva Palpebral redness,[1],0
same,Score of ocular lesions: Cornea Area,[1],0
same,Score of ocular lesions: Cornea Degree,[1],0
same,Score of ocular lesions: Iris Values,[1],0
same,Score of ocular lesions: Total score,[1],0
same,Score of ocular lesions: Conjunctiva Bulbar redness,[2],0.50
same,Score of ocular lesions: Conjunctiva Discharge,[2],0.17
same,Score of ocular lesions: Conjunctiva Nictitating membrane,[2],0.33
same,Score of ocular lesions: Conjunctiva Palpebral edema,[2],0
same,Score of ocular lesions: Conjunctiva Palpebral redness,[2],0
same,Score of ocular lesions: Cornea Area,[2],0
same,Score of ocular lesions: Cornea Degree,[2],0
same,Score of ocular lesions: Iris Values,[2],0
same,Score of ocular lesions: Total score,[2],0.83
same,Score of ocular lesions: Conjunctiva Bulbar redness,[3],0.17
same,Score of ocular lesions: Conjunctiva Discharge,[3],0.50
same,Score of ocular lesions: Conjunctiva Nictitating membrane,[3],0.33
same,Score of ocular lesions: Conjunctiva Palpebral edema,[3],0.17
same,Score of ocular lesions: Conjunctiva Palpebral redness,[3],0.17
same,Score of ocular lesions: Cornea Area,[3],0
same,Score of ocular lesions: Cornea Degree,[3],0
same,Score of ocular lesions: Iris Values,[3],0
same,Score of ocular lesions: Total score,[3],0.84
same,Score of ocular lesions: Conjunctiva Bulbar redness,[4],0.50
same,Score of ocular lesions: Conjunctiva Discharge,[4],0
same,Score of ocular lesions: Conjunctiva Nictitating membrane,[4],0.50
same,Score of ocular lesions: Conjunctiva Palpebral edema,[4],0.33
same,Score of ocular lesions: Conjunctiva Palpebral redness,[4],0.33
same,Score of ocular lesions: Cornea Area,[4],0
same,Score of ocular lesions: Cornea Degree,[4],0
same,Score of ocular lesions: Iris Values,[4],0
same,Score of ocular lesions: Total score,[4],1.66
same,Score of ocular lesions: Conjunctiva Bulbar redness,"0.125%, Before instillation",0
same,Score of ocular lesions: Conjunctiva Discharge,"0.125%, Before instillation",0
same,Score of ocular lesions: Conjunctiva Nictitating membrane,"0.125%, Before instillation",0
same,Score of ocular lesions: Conjunctiva Palpebral edema,"0.125%, Before instillation",0
same,Score of ocular lesions: Conjunctiva Palpebral redness,"0.125%, Before instillation",0
same,Score of ocular lesions: Cornea Area,"0.125%, Before instillation",0
same,Score of ocular lesions: Cornea Degree,"0.125%, Before instillation",0
same,Score of ocular lesions: Iris Values,"0.125%, Before instillation",0
same,Score of ocular lesions: Total score,"0.125%, Before instillation",0
same,Score of ocular lesions: Conjunctiva Bulbar redness,[5],0.33
same,Score of ocular lesions: Conjunctiva Discharge,[5],0
same,Score of ocular lesions: Conjunctiva Nictitating membrane,[5],0.33
same,Score of ocular lesions: Conjunctiva Palpebral edema,[5],0
same,Score of ocular lesions: Conjunctiva Palpebral redness,[5],0
same,Score of ocular lesions: Cornea Area,[5],0
same,Score of ocular lesions: Cornea Degree,[5],0
same,Score of ocular lesions: Iris Values,[5],0
same,Score of ocular lesions: Total score,[5],0.66
same,Score of ocular lesions: Conjunctiva Bulbar redness,[6],0.33
same,Score of ocular lesions: Conjunctiva Discharge,[6],0
same,Score of ocular lesions: Conjunctiva Nictitating membrane,[6],0.50
same,Score of ocular lesions: Conjunctiva Palpebral edema,[6],0
same,Score of ocular lesions: Conjunctiva Palpebral redness,[6],0.33
same,Score of ocular lesions: Cornea Area,[6],0
same,Score of ocular lesions: Cornea Degree,[6],0
same,Score of ocular lesions: Iris Values,[6],0
same,Score of ocular lesions: Total score,[6],1.50
same,Score of ocular lesions: Conjunctiva Bulbar redness,[7],0.50
same,Score of ocular lesions: Conjunctiva Discharge,[7],0.67
same,Score of ocular lesions: Conjunctiva Nictitating membrane,[7],0.33
same,Score of ocular lesions: Conjunctiva Palpebral edema,[7],0.17
same,Score of ocular lesions: Conjunctiva Palpebral redness,[7],0.33
same,Score of ocular lesions: Cornea Area,[7],0
same,Score of ocular lesions: Cornea Degree,[7],0
same,Score of ocular lesions: Iris Values,[7],0
same,Score of ocular lesions: Total score,[7],2.83
same,Score of ocular lesions: Conjunctiva Bulbar redness,[8],0.67
same,Score of ocular lesions: Conjunctiva Discharge,[8],1.00
same,Score of ocular lesions: Conjunctiva Nictitating membrane,[8],1.33
same,Score of ocular lesions: Conjunctiva Palpebral edema,[8],0
same,Score of ocular lesions: Conjunctiva Palpebral redness,[8],0
same,Score of ocular lesions: Cornea Area,[8],0
same,Score of ocular lesions: Cornea Degree,[8],0
same,Score of ocular lesions: Iris Values,[8],0
same,Score of ocular lesions: Total score,[8],3.00
same,Score of ocular lesions: Conjunctiva Bulbar redness,"0.25%, Before instillation",0
same,Score of ocular lesions: Conjunctiva Discharge,"0.25%, Before instillation",0
same,Score of ocular lesions: Conjunctiva Nictitating membrane,"0.25%, Before instillation",0
same,Score of ocular lesions: Conjunctiva Palpebral edema,"0.25%, Before instillation",0
same,Score of ocular lesions: Conjunctiva Palpebral redness,"0.25%, Before instillation",0
same,Score of ocular lesions: Cornea Area,"0.25%, Before instillation",0
same,Score of ocular lesions: Cornea Degree,"0.25%, Before instillation",0
same,Score of ocular lesions: Iris Values,"0.25%, Before instillation",0
same,Score of ocular lesions: Total score,"0.25%, Before instillation",0
same,Score of ocular lesions: Conjunctiva Bulbar redness,[9],0.50
same,Score of ocular lesions: Conjunctiva Discharge,[9],0
same,Score of ocular lesions: Conjunctiva Nictitating membrane,[9],0.50
same,Score of ocular lesions: Conjunctiva Palpebral edema,[9],0
same,Score of ocular lesions: Conjunctiva Palpebral redness,[9],0
same,Score of ocular lesions: Cornea Area,[9],0
same,Score of ocular lesions: Cornea Degree,[9],0
same,Score of ocular lesions: Iris Values,[9],0
same,Score of ocular lesions: Total score,[9],1.00
same,Score of ocular lesions: Conjunctiva Bulbar redness,[10],0.50
same,Score of ocular lesions: Conjunctiva Discharge,[10],0.17
same,Score of ocular lesions: Conjunctiva Nictitating membrane,[10],0.33
same,Score of ocular lesions: Conjunctiva Palpebral edema,[10],0.33
same,Score of ocular lesions: Conjunctiva Palpebral redness,[10],0.33
same,Score of ocular lesions: Cornea Area,[10],0
same,Score of ocular lesions: Cornea Degree,[10],0
same,Score of ocular lesions: Iris Values,[10],0.33
same,Score of ocular lesions: Total score,[10],1.99
same,Score of ocular lesions: Conjunctiva Bulbar redness,[11],0.67
same,Score of ocular lesions: Conjunctiva Discharge,[11],1.00
same,Score of ocular lesions: Conjunctiva Nictitating membrane,[11],1.00
same,Score of ocular lesions: Conjunctiva Palpebral edema,[11],0.33
same,Score of ocular lesions: Conjunctiva Palpebral redness,[11],0.33
same,Score of ocular lesions: Cornea Area,[11],0
same,Score of ocular lesions: Cornea Degree,[11],0
same,Score of ocular lesions: Iris Values,[11],0
same,Score of ocular lesions: Total score,[11],3.83
same,Score of ocular lesions: Conjunctiva Bulbar redness,[12],1.00
same,Score of ocular lesions: Conjunctiva Discharge,[12],2.00
same,Score of ocular lesions: Conjunctiva Nictitating membrane,[12],1.00
same,Score of ocular lesions: Conjunctiva Palpebral edema,[12],2.83
same,Score of ocular lesions: Conjunctiva Palpebral redness,[12],2.00
same,Score of ocular lesions: Cornea Area,[12],0
same,Score of ocular lesions: Cornea Degree,[12],0
same,Score of ocular lesions: Iris Values,[12],0.67
same,Score of ocular lesions: Total score,[12],9.50
same,Score of ocular lesions: Conjunctiva Bulbar redness,"0.5%, Before instillation",0
same,Score of ocular lesions: Conjunctiva Discharge,"0.5%, Before instillation",0
same,Score of ocular lesions: Conjunctiva Nictitating membrane,"0.5%, Before instillation",0
same,Score of ocular lesions: Conjunctiva Palpebral edema,"0.5%, Before instillation",0
same,Score of ocular lesions: Conjunctiva Palpebral redness,"0.5%, Before instillation",0
same,Score of ocular lesions: Cornea Area,"0.5%, Before instillation",0
same,Score of ocular lesions: Cornea Degree,"0.5%, Before instillation",0
same,Score of ocular lesions: Iris Values,"0.5%, Before instillation",0
same,Score of ocular lesions: Total score,"0.5%, Before instillation",0
same,Score of ocular lesions: Conjunctiva Bulbar redness,[13],0.50
same,Score of ocular lesions: Conjunctiva Discharge,[13],0
same,Score of ocular lesions: Conjunctiva Nictitating membrane,[13],0.50
same,Score of ocular lesions: Conjunctiva Palpebral edema,[13],0
same,Score of ocular lesions: Conjunctiva Palpebral redness,[13],0.17
same,Score of ocular lesions: Cornea Area,[13],0
same,Score of ocular lesions: Cornea Degree,[13],0
same,Score of ocular lesions: Iris Values,[13],0
same,Score of ocular lesions: Total score,[13],1.17
same,Score of ocular lesions: Conjunctiva Bulbar redness,[14],0.50
same,Score of ocular lesions: Conjunctiva Discharge,[14],0
same,Score of ocular lesions: Conjunctiva Nictitating membrane,[14],0.50
same,Score of ocular lesions: Conjunctiva Palpebral edema,[14],0.17
same,Score of ocular lesions: Conjunctiva Palpebral redness,[14],0.50
same,Score of ocular lesions: Cornea Area,[14],0
same,Score of ocular lesions: Cornea Degree,[14],0
same,Score of ocular lesions: Iris Values,[14],0.67
same,Score of ocular lesions: Total score,[14],2.34
same,Score of ocular lesions: Conjunctiva Bulbar redness,[15],0.67
same,Score of ocular lesions: Conjunctiva Discharge,[15],0.33
same,Score of ocular lesions: Conjunctiva Nictitating membrane,[15],0.83
same,Score of ocular lesions: Conjunctiva Palpebral edema,[15],0.50
same,Score of ocular lesions: Conjunctiva Palpebral redness,[15],0.50
same,Score of ocular lesions: Cornea Area,[15],0
same,Score of ocular lesions: Cornea Degree,[15],0
same,Score of ocular lesions: Iris Values,[15],1.00
same,Score of ocular lesions: Total score,[15],3.83
same,Score of ocular lesions: Conjunctiva Bulbar redness,[16],2.00
same,Score of ocular lesions: Conjunctiva Discharge,[16],2.33
same,Score of ocular lesions: Conjunctiva Nictitating membrane,[16],1.67
same,Score of ocular lesions: Conjunctiva Palpebral edema,[16],3.33
same,Score of ocular lesions: Conjunctiva Palpebral redness,[16],2.33
same,Score of ocular lesions: Cornea Area,[16],0
same,Score of ocular lesions: Cornea Degree,[16],0
same,Score of ocular lesions: Iris Values,[16],1.00
same,Score of ocular lesions: Total score,[16],12.66
same,Score of ocular lesions: Conjunctiva Bulbar redness,"1.0%, Before instillation",0
same,Score of ocular lesions: Conjunctiva Discharge,"1.0%, Before instillation",0
same,Score of ocular lesions: Conjunctiva Nictitating membrane,"1.0%, Before instillation",0
same,Score of ocular lesions: Conjunctiva Palpebral edema,"1.0%, Before instillation",0
same,Score of ocular lesions: Conjunctiva Palpebral redness,"1.0%, Before instillation",0
same,Score of ocular lesions: Cornea Area,"1.0%, Before instillation",0
same,Score of ocular lesions: Cornea Degree,"1.0%, Before instillation",0
same,Score of ocular lesions: Iris Values,"1.0%, Before instillation",0
same,Score of ocular lesions: Total score,"1.0%, Before instillation",0
